Test system: tau protein
Assay: Tau protein in vitro degradation assay (Western blot, Tau-13 antibody)
Assay type: cell-based, human
Settings: SK-N-SH cells; 72 hours of incubation; tested at 300 nM, 100 nM, 33 nM and 11 nM; Western blot, Tau-13 antibody
Summary of the method: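 SK-N-SH cells, seeded ≥18 h beforehand, were incubated 72 h with tau PROTACs at 1000, 300 and 100 nM or at 300, 100, 33 and 11 nM. Lysates in protease-inhibitor buffer were resolved by SDS-PAGE; tau quantified by Western blot with Tau-13 antibody recognising all human tau forms.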

| Compound | Degradation activity (tau protein remaining; highest amount of degradation observed at any dosage) |
| --- | --- |
| Cn1c2ccncc2c2ccc(-c3ccc(O[C@H]4C[C@H](OC5CCN(c6cccc(C#CCOc7ccc8c(c7)C(=O)N(C7CCC(=O)NC7=O)C8=O)c6)CC5)C4)nc3)cc21 (stereo partly drawn) [Compound 198, 2-(2,6-dioxopiperidin-3-yl)-5-((3-(3-(4-((1r,3r)-3-((5-(5-methyl-5H-pyrido[4,3-b]indol-7-yl)pyridin-2-yl)oxy)cyclobutoxy)piperidin-1-yl)phenyl)prop-2-yn-1-yl)oxy)isoindoline-1,3-dione] | A (≤50% tau protein remaining after 72 hours of incubation with the test compound) |
| Cn1c2ccncc2c2ccc(-c3ccc(O[C@H]4C[C@H](N(C)C(=O)C56CC(COCCCCOc7ccc8c(c7)C(=O)N(C7CCC(=O)NC7=O)C8=O)(C5)C6)C4)nc3)cc21 (stereo partly drawn) [Compound 199, 3-((4-((2-(2,6-dioxopiperidin-3-yl)-1,3-dioxoisoindolin-5-yl)oxy)butoxy)methyl)-N-methyl-N-((1r,3r)-3-((5-(5-methyl-5H-pyrido[4,3-b]indol-7-yl)pyridin-2-yl)oxy)cyclobutyl)bicyclo[1.1.1]pentane-1-carboxamide] | C (>80% tau protein remaining after 72 hours of incubation with the test compound) |
| Cc1ncsc1-c1ccc(CNC(=O)[C@@H]2C[C@@H](O)CN2C(=O)[C@H](C(C)C)N2Cc3ccccc3C2=O)c(OCCOCCOCCOCCOCCOc2ccc(-c3ccc4c(c3)[nH]c3ccncc34)cn2)c1 [Compound 201, (2S,4R)—N-(2-((14-((5-(5H-pyrido[4,3-b]indol-7-yl)pyridin-2-yl)oxy)-3,6,9,12-tetraoxatetradecyl)oxy)-4-(4-methylthiazol-5-yl)benzyl)-4-hydroxy-1-((S)-3-methyl-2-(1-oxoisoindolin-2-yl)butanoyl)pyrrolidine-2-carboxamide] | C (>80% tau protein remaining after 72 hours of incubation with the test compound) |
| CN(CCCO[C@H]1C[C@H](Oc2ccc(-c3ccc4c5cnccc5n(C)c4c3)cn2)C1)C(=O)COCC1CN(c2ccc3c(c2)C(=O)N(C2CCC(=O)NC2=O)C3=O)C1 (stereo partly drawn) [Compound 202, 2-((1-(2-(2,6-dioxopiperidin-3-yl)-1,3-dioxoisoindolin-5-yl)azetidin-3-yl)methoxy)-N-methyl-N-(3-((1r,3r)-3-((5-(5-methyl-5H-pyrido[4,3-b]indol-7-yl)pyridin-2-yl)oxy)cyclobutoxy)propyl)acetamide] | B (≤80% and >50% tau protein remaining after 72 hours of incubation with the test compound) |
| Cn1c2ccncc2c2ccc(-c3cnc(OCCOCCOCCOCCOCCOc4ccc5c(c4)C(=O)N(C4CCC(=O)NC4=O)C5=O)c(C#N)c3)cc21 (stereo not drawn) [Compound 203, 2-((14-((2-(2,6-dioxopiperidin-3-yl)-1,3-dioxoisoindolin-5-yl)oxy)-3,6,9,12-tetraoxatetradecyl)oxy)-5-(5-methyl-5H-pyrido[4,3-b]indol-7-yl)nicotinonitrile] | A (≤50% tau protein remaining after 72 hours of incubation with the test compound) |
| O=C1CCC(N2C(=O)c3ccc(OCC#Cc4ccc(O[C@H]5C[C@H](Oc6ccc(-c7cc8[nH]c9ccncc9c8c(F)c7F)cn6)C5)cn4)cc3C2=O)C(=O)N1 (stereo partly drawn) [Compound 204, 5-((3-(5-((1r,3r)-3-((5-(8,9-difluoro-5H-pyrido[4,3-b]indol-7-yl)pyridin-2-yl)oxy)cyclobutoxy)pyridin-2-yl)prop-2-yn-1-yl)oxy)-2-(2,6-dioxopiperidin-3-yl)isoindoline-1,3-dione] | C (>80% tau protein remaining after 72 hours of incubation with the test compound) |
